Results on 8 compounds are retold here after patent US20110044936A1, “Composition for Attracting Bed Bugs” (priority 2009, published 2011).

Holding throughout (type): in vivo
Assay [1] relates to bed bugs (Cimex lectularius). The assay can be described thus: Bed bug aggregation assay, mixtures of Hexenal and Octenal (Example 2). To be noted: about 30 ppm in silicone oil; for Number of bed bugs under experimental (Exp) disk: 5 microliters, ten bed bugs, average of two tests. The method, then: Attraction Assays: […] For this experiment, mixtures of Hexenal and Octenal were diluted in silicone oil at the following ratios: 100:0; 75:25; 50:50; 25:75; and 0:100. […] Readings were taken hourly for four hours from the release of bed bugs in the assay arena. The number of bed bugs under the control disk and the number of bed bugs under the experimental disk were recorded. The test treatment was considered to be an attractant if the number of bed bugs under the experimental filter disk was greater than the number under the control disk. Table 2 below summarizes the experimental data, the experimental test treatments considered as attractants are in bold.

The test system of assay [2] is bed bugs (Cimex lectularius). The experiment in a line: Bed bug aggregation (attraction) assay, Petri dish arena with treated and control filter paper tents (Example 1). The method, then: Attraction Assays: Assay arenas were made from 150×15 mm plastic Petri dishes (VWR#25384-326) containing a 125 mm piece off qualitative filter paper (VWR#28320-100) glued to the bottom using 3M Super 77® multipurpose spray adhesive. A 80 mm hole was cut into the lid and a 500 um mesh Nytex® screen (Bioquip, #7293B) was glued to cover the opening using quick epoxy. Fresh bottom dishes were used in each assay. For these experiments 2.4 cm filter paper folded to create a tent were treated with either a control treatment (10 microliters of silicone oil for aldehyde controls and 5 microliters of deionized water for acid controls) or 10 microliters of the experimental test treatment diluted in silicone oil (aldehydes) or 5 microliters of the experimental chemical diluted in deionized water (acids). Ten bed bugs per test were released into the assay arena for the aldehyde test treatments and controls, five bed bugs per test were released into the assay arena for the acid test treatments. Day cycling bed bugs (Cimex lectularius), 12 hour light: 12 hour dark (7 AM On: 7 PM Off) light cycle, were incubated and evaluated under normal room lighting conditions at room temperature. Readings were taken at 1 hour intervals from the release of bed bugs for 4 hours for aldehydes and one hour for acids, due to the quick volatility of the acids. The number of bed bugs under the control filter paper disk and the number of bed bugs under the test treatment filter paper disk were recorded. The test treatment was considered to be an attractant if the number of bed bugs under the experimental filter disk was greater than the number under the control filter disk. Table 1 below summarizes the experimental data, the experimental test treatments considered as attractants are in bold.

Assay [3] relates to bed bugs (Cimex lectularius). The experiment in a line: Test arena gas assay, compounds dissolved in nonane (Example 5). To be noted: for % Bed bugs in Experimental Zone: after two hour exposure, released from nonane solution at 150.0-184.8 nanograms/hour @ 100 mL/min air flow, test gas 21-22 °C, control gas compressed air; for Attraction of bed bugs to gaseous mixture: test arena, two hour exposure, versus control gas. From the text:
A test arena was constructed from a 60×40×22 cm (L:W:H) polystyrene container. A 60×40 cm piece of filter paper was glued on the bottom to provide a walking surface for the bed bugs. At one end of the test arena, a triangular piece of plastic (16 cm high×25 cm long) was glued to the middle of the side and bottom of the container to create test zones of equal area on either side of the partition. On each side of this partition a piece of Tygon® tubing was inserted through a hole 7 cm above the bottom of each test zone to deliver a control gas to one side of the partition (control zone) and the experimental gas to the other side of the partition (experimental zone). The tubing was positioned to deliver the gases downward into the test zones with each outlet 6 cm above the filter paper glued to the bottom of the container. At the other end of the test arena, a 4 W night light was placed 35 cm above the bottom of the arena and regulated to a 12 hour light:12 hour dark (7 AM On: 7 PM Off) light cycle. Also placed adjacent to the night light was a small fan (Boston, cat#EHSDF) to create a gentle removal of gases from the distal part of the arena. Air released by the experimental and control gases was contained within their partitions and were gently drawn away from the respective air inputs, mixed within the arena and removed by the fan. This created a laminar flow where the bed bugs had opportunity to select either the experimental or control gas. Fifty bed bugs (Cimex lectularius) were entrapped within an inverted 90 mm Petri dish at a position furthest from the control and experimental zones until bed bugs were quiescent. Removal of the Petri dish started the experiment and readings were taken every hour for two hours. Data collected were number of bed bugs in the experimental, control and free arena zones. In addition, gas temperature, relative humidity, air flow rate, and percent CO2 data were collected. The experimental gas was considered to be an attractant if more bed bugs were in the experimental zone than in the control zone.
Determination of Bed Bug Aggregation Effect Using Hexenal, Butyric Acid, trans-2-Hexen-1-al Diethylacetal, Trimethylsilyl Butyrate or Methyl Butyrate Dissolved in an Alkane Solvent Using the test arena and methods described in Example 4, test treatments containing about 300 ppm of a pro-aldehyde compound, trans-2-hexen-1-al diethylacetal, dissolved in nonane, about 300 ppm of Hexenal dissolved in nonane, about 200 ppm of butyric acid dissolved in nonane and about 200 ppm of a pro-organic acid compound, trimethylsilyl butyrate or methyl butyrate, dissolved in nonane were prepared. Separate 100 micro liter pipettes (Drummond Wiretrol 100 μL) were filled with the test solutions. One end of each micro liter pipette was sealed with parafilm leaving one end of each open. […] An air tight lid was placed onto the plastic container and the container was installed in-line after humidity and temperature conditioning of the gas and before the gas entered the arena. The micro liter pipettes were weighed before and after use to determine the amount of the test compounds released. The control gas used for these experiments consisted of house compressed air.

The mark [4] stands for this setting: 1 ppm in silicone oil, 10 microliters, 1 Hour, ten bed bugs, average of two tests.
[5] abbreviates: 1 ppm in silicone oil, 10 microliters, 2 Hour, ten bed bugs, average of two tests.
Setting [6] is: 1 ppm in silicone oil, 10 microliters, 3 Hour, ten bed bugs, average of two tests.
[7] abbreviates: 1 ppm in silicone oil, 10 microliters, 4 Hour, ten bed bugs, average of two tests.
Setting [8] is: 10 ppm in silicone oil, 10 microliters, 1 Hour, ten bed bugs, average of two tests.
[9] abbreviates: 10 ppm in silicone oil, 10 microliters, 2 Hour, ten bed bugs, average of two tests.
Setting [10] is: 10 ppm in silicone oil, 10 microliters, 3 Hour, ten bed bugs, average of two tests.
Where [11] appears, read: 10 ppm in silicone oil, 10 microliters, 4 Hour, ten bed bugs, average of two tests.
Where [12] appears, read: 100 ppm in silicone oil, 10 microliters, 1 Hour, ten bed bugs, average of two tests.
Setting [13] is: 100 ppm in silicone oil, 10 microliters, 2 Hour, ten bed bugs, average of two tests.
Where [14] appears, read: 100 ppm in silicone oil, 10 microliters, 3 Hour, ten bed bugs, average of two tests.
Where [15] appears, read: 100 ppm in silicone oil, 10 microliters, 4 Hour, ten bed bugs, average of two tests.
[16] abbreviates: 1000 ppm in silicone oil, 10 microliters, 1 Hour, ten bed bugs, average of two tests.
Setting [17] is: 1000 ppm in silicone oil, 10 microliters, 2 Hour, ten bed bugs, average of two tests.
The mark [18] stands for this setting: 1000 ppm in silicone oil, 10 microliters, 3 Hour, ten bed bugs, average of two tests.
[19] abbreviates: 1000 ppm in silicone oil, 10 microliters, 4 Hour, ten bed bugs, average of two tests.
[20] abbreviates: 10000 ppm in silicone oil, 10 microliters, 1 Hour, ten bed bugs, one test.
The mark [21] stands for this setting: 10000 ppm in silicone oil, 10 microliters, 2 Hour, ten bed bugs, one test.
The mark [22] stands for this setting: 10000 ppm in silicone oil, 10 microliters, 3 Hour, ten bed bugs, one test.
[23] abbreviates: 10000 ppm in silicone oil, 10 microliters, 4 Hour, ten bed bugs, one test.
[24] abbreviates: at a high concentration of about 10,000 ppm.
The mark [25] stands for this setting: organic acid 10 ppm in deionized water, 5 microliters, one hour, five bed bugs, average of two tests.
Setting [26] is: organic acid 50 ppm in deionized water, 5 microliters, one hour, five bed bugs, average of two tests.
Setting [27] is: organic acid 100 ppm in deionized water, 5 microliters, one hour, five bed bugs, average of two tests.
Setting [28] is: organic acid 1000 ppm in deionized water, 5 microliters, one hour, five bed bugs, average of two tests.

On to `CCC/C=C/C=O` [Hexenal, trans-2-hexen-1-al], for which the “Number of bed bugs under experimental (Exp) disk” value in assay [1] (1 Hour) is on record as 3; in assay [1] (2 Hour), 3; in assay [1] (3 Hour), 4.5; in assay [1] (4 Hours) it was 5. Also, the “Number of bed bugs under experimental (Exp) filter paper disk” value (shortened to “Number … (Exp) filter paper disk”) in assay [2] (setting [4]) is 4; in assay [2] (setting [5]), 6; in assay [2] (setting [6]), 6.5; in assay [2] (setting [7]), 6; in assay [2] (setting [8]) it was 3; in assay [2] (setting [9]), 3.5. The “Number … (Exp) filter paper disk” value in assay [2] (setting [10]) is 4; in assay [2] (setting [11]) it was 5.5; in assay [2] (setting [12]) it was 6.5; in assay [2] (setting [13]), 8; in assay [2] (setting [14]), 9; in assay [2] (setting [15]) it was 8.5. For the same compound, the “Number … (Exp) filter paper disk” value in assay [2] (setting [16]) is 6; in assay [2] (setting [17]), 7; in assay [2] (setting [18]), 9; in assay [2] (setting [19]), 9; in assay [2] (setting [20]), 0; in assay [2] (setting [21]), 1. Also, the “Number … (Exp) filter paper disk” value in assay [2] (setting [22]) and in assay [2] (setting [23]) was 1 each time. The “Attractiveness to bed bugs” value in assay [2] (setting [24]) is “much less attractive”. In addition, in assay [3], the “% Bed bugs in Experimental Zone” value is listed as 38.0%. Also, the “Attraction of bed bugs to gaseous mixture” value in assay [3] was “attracted”.
Regarding `CCCC(=O)O[Si](C)(C)C` [Trimethylsilyl butyrate, trimethylsilyl butyrate], in assay [3], the “% Bed bugs in Experimental Zone” value was 9% and the “Attraction of bed bugs to gaseous mixture” value is listed as “attracted”.
Take `CCCCC/C=C/C=O` [Octenal, trans-2-octen-1-al]: the “Number of bed bugs under experimental (Exp) disk” value in assay [1] (1 Hour) was 7.5; in assay [1] (2 Hour), 7.5; in assay [1] (3 Hour), 9; in assay [1] (4 Hours), 8.5. Moreover, in assay [1] (compared among H:O ratios), the “Attraction of bed bugs to experimental filter disks” value is on record as “most bed bugs were attracted”. Besides, the “Number … (Exp) filter paper disk” value is 1 in assay [2] (setting [4]); 2 in assay [2] (setting [5]); 3.5 in assay [2] (setting [6]); 5 in assay [2] (setting [7]); 2 in assay [2] (setting [8]); 4 in assay [2] (setting [9]). The “Number … (Exp) filter paper disk” value was 4.5 in assay [2] (setting [10]); 4 in assay [2] (setting [11]); 5 in assay [2] (setting [12]); 6.5 in assay [2] (setting [13]); 7 in assay [2] (setting [14]); 6.5 in assay [2] (setting [15]). Further, the “Number … (Exp) filter paper disk” value in assay [2] (setting [16]) is given as 5; in assay [2] (setting [17]) it was 4.5; in assay [2] (setting [18]), 5; in assay [2] (setting [19]) it was 5; in assay [2] (setting [20]) it was 2; in assay [2] (setting [21]), 2. In addition, the “Number … (Exp) filter paper disk” value in assay [2] (setting [22]) is recorded as 2; in assay [2] (setting [23]), 4. Moreover, the “Attractiveness to bed bugs” value in assay [2] (setting [24]) was “much less attractive”; in assay [2] (at concentrations below about 100 ppm), “less attractive”.
For the compound `CC(=O)O` [Acetic acid, reference compound], the “Number … (Exp) filter paper disk” value in assay [2] (setting [25]) stood at 0; in assay [2] (setting [26]), 1; in assay [2] (setting [27]), 1; in assay [2] (setting [28]) it was 3; in assay [2] (organic acid 10000 ppm in deionized water, 5 microliters, one hour, five bed bugs, average of two tests), 3.
In the case of `CCCCC=O` [Valeraldehyde, reference compound], the “Number … (Exp) filter paper disk” value in assay [2] (10 milligrams delivered in 10 microliters methanol solution, one experimental disk versus 6 methanol control disks, 1 Hour, average of two tests) is on record as 0.1. Further, the “Attractiveness to bed bugs” value in assay [2] (saturated aldehyde, 10 milligrams on disk, one hour) is recorded as “not attractive”.
Consider `CCCC(=O)OC` [methyl butyrate], for which, in assay [3], the “% Bed bugs in Experimental Zone” value is on record as 34.0% and the “Attraction of bed bugs to gaseous mixture” value is “attracted”.
With `O=CO` [Formic acid, reference compound], the “Number … (Exp) filter paper disk” value in assay [2] (setting [25]) is given as 0; in assay [2] (setting [26]), 1; in assay [2] (setting [27]), 1; in assay [2] (setting [28]), 3.
Regarding `CCC/C=C/C(OCC)OCC` [trans-2-hexen-1-al diethylacetal], in assay [3], the “% Bed bugs in Experimental Zone” value is 28.0% and the “Attraction of bed bugs to gaseous mixture” value is listed as “attracted”.
